Results taken from patent publication US20170121344A1 (Siga Technologies, Inc., priority 2009, published 2017).
pEC50: −log10 of the molar value. Read-outs that look alike come from different tables or passages of the source.

Test system: Dengue-2 (Strain New Guinea C)
Assay: Viral yield assay against Dengue-2 in Vero cells
Assay type: cell-based, Dengue virus
Conditions: Dengue virus; for EC50: DENV2, viral yield assay, MOI 0.1, 48 hours post infection, read-out: Activity (EC50 in μM) DENV-2; for pEC50: read-out: Activity (EC50 class) against Dengue-2 Virus in Vero cells
In short: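 Virus yield, titered on Vero cells from cultures harvested at 48 h post infection, gave the EC50. Cultures were infected at MOI 0.1 with dengue-2 and treated with compound or DMSO at 37° C. DENV-1 and DENV-4 were determined similarly.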

[1] = Vero cells, MOI 0.1, harvested 48 hours post infection

| SMILES | EC50 (Vero cells) [µM] | pEC50 [1] | further results |
| --- | --- | --- | --- |
| COc1cccc(NC(=O)c2sc3nc(-c4cccc(OC)c4)ccc3c2N)c1 [Compound 503, 3-amino-N,6-bis(3-methoxyphenyl) thieno[2,3-b]pyridine-2-carboxamide] | < 5 | – | – |
| CN1CCc2nc3sc(C(=O)Nc4nncs4)c(N)c3cc2C1 [Compound 278, 3-Amino-6-methyl-5,6,7,8-tetrahydro-thieno[2,3-b][1,6]naphthyridine-2-carboxylic acid [1,3,4]thiadiazol-2-ylamide] | – | < 4.60 | – |
| Cc1ccc2c(n1)sc1c(=O)[nH]c(C)nc12 [Compound 154, 2,7-Dimethyl-3H-pyrido[3′,2′:4,5]thieno[3,2-d]pyrimidin-4-one] | – | < 4.60 | – |
| COCc1cc(C)nc2sc(C(=O)Nc3ccc(N4CCOCC4)cc3)c(N)c12 [Compound 243, 3-Amino-4-methoxymethyl-6-methyl-thieno[2,3-b]pyridine-2-carboxylic acid (4-morpholin-4-yl-phenyl)-amide] | – | < 4.60 | – |
| Cc1ccccc1-n1cnc2c(sc3nc(N4CCOCC4)c4c(c32)CC(C)(C)OC4)c1=O [Compound 100, 2,2-Dimethyl-5-morpholin-4-yl-9-o-tolyl-1,4-dihydro-2H,9H-3-oxa-7-thia-6,9,11-triaza-benzo[c]fluoren-8-one] | – | 4.60 to 5.30 | – |
| Cc1cc(C(F)(F)F)c2c(N)c(C(=O)Nc3cccc(C(F)(F)F)c3)sc2n1 [Compound 149, 3-Amino-6-methyl-4-trifluoromethyl-thieno[2,3-b]pyridine-2-carboxylic acid (3-trifluoromethyl-phenyl)-amide] | – | – | pEC50 (Vero, 48 h): < 4.60 |
| CCc1nnc(NC(=O)c2sc3nc4c(cc3c2N)CCC4)s1 [Compound 190, 3-Amino-6,7-dihydro-5H-cyclopenta[b]thieno[3,2-e]pyridine-2-carboxylic acid (5-ethyl-[1,3,4]thiadiazol-2-yl)-amide] | – | < 4.60 | – |
| CC(C)NC(=O)c1sc2nc3c(c(-c4cccs4)c2c1N)CN(C)CC3 [Compound 273, 3-Amino-6-methyl-4-thiophen-2-yl-5,6,7,8-tetrahydro-thieno[2,3-b][1,6]naphthyridine-2-carboxylic acid isopropylamide] | – | – | pEC50 (Vero, 48 h): < 4.60 |
| CN(C)c1ccnc2sc(C(=O)NCc3ccccc3)c(N)c12 [Compound 77, 3-Amino-4-dimethylamino-thieno[2,3-b]pyridine-2-carboxylic acid benzylamide] | – | 4.60 to 5.30 | – |
| Cc1c(Cl)cccc1NC(=O)c1sc2nc(-c3ccc(F)cc3)ccc2c1N [Compound 604, 3-amino-N-(3-chloro-2-methyl-phenyl)-6-(4-fluorophenyl)thieno[2,3-b]pyridine-2-carboxamide] | < 5 | – | – |
| Nc1c(C(=O)N2CCCCC2)sc2nc(-c3cccs3)cc(C(F)(F)F)c12 [Compound 189, (3-Amino-6-thiophen-2-yl-4-trifluoromethyl-thieno[2,3-b]pyridin-2-yl)-piperidin-1-yl-methanone] | – | < 4.60 | – |
| COCc1cc(C)nc2sc(C(=O)Nc3cc(Br)cc4cccnc34)c(N)c12 [Compound 146, 3-Amino-4-methoxymethyl-6-methyl-thieno[2,3-b]pyridine-2-carboxylic acid (6-bromo-quinolin-8-yl)-amide] | – | – | pEC50 (Vero, 48 h): < 4.60 |
| Nc1c(C(=O)Nc2cccc(C(F)(F)F)c2)sc2nc3c(cc12)CCCCCC3 [Compound 370, 3-amino-N-(3-(trifluoromethyl)phenyl)-5,6,7,8,9,10-hexahydrocycloocta[b] thieno[3,2-e]pyridine-2-carboxamide] | < 5 | – | – |
| COc1ccc(-c2cc(-c3ccc(F)cc3)nc3sc(C(N)=O)c(N)c23)cc1OC [Compound 54, 3-Amino-4-(3,4-dimethoxy-phenyl)-6-(4-fluoro-phenyl)-thieno[2,3-b]pyridine-2-carboxylic acid amide] | – | > 5.30 | – |
| N#Cc1ccc(NC(=O)c2sc3nc(N)c(C#N)cc3c2N)cc1 [Compound 152, 3,6-Diamino-5-cyano-thieno[2,3-b]pyridine-2-carboxylic acid (4-cyano-phenyl)-amide] | – | < 4.60 | – |
| COc1cccc(-c2ccc3c(N)c(C(=O)Nc4ccc(C)c(Cl)c4)sc3n2)c1 [Compound 544, 3-amino-N-(3-chloro-4-mehtyl-phenyl)-6-(3-methoxyphenyl)thieno[2,3-b] pyridine-2-carboxamide] | < 5 | – | – |
| CC(C)N1CCc2nc3sc(C(=O)Nc4cccc(F)c4)c(N)c3cc2C1 [Compound 24, 3-Amino-6-isopropyl-5,6,7,8-tetrahydro-thieno[2,3-b][1,6]naphthyridine-2-carboxylic acid (3-fluoro-phenyl)-amide] | – | > 5.30 | – |
| Nc1c(C(=O)Nc2ccncc2)sc2nc(-c3cccc(C(F)(F)F)c3)ccc12 [Compound 653, 3-amino-N-(4-pyridyl)-6-[3-(trifluoromethyl)phenyl]thieno[2,3-b] pyridine-2-carboxamide] | < 5 | – | – |
| CN1CCc2nc3sc(C(=O)Nc4c(F)cccc4F)c(N)c3cc2C1 [Compound 277, 3-Amino-6-methyl-5,6,7,8-tetrahydro-thieno[2,3-b][1,6]naphthyridine-2-carboxylic acid (2,6-difluoro-phenyl)-amide] | – | < 4.60 | – |
| CC(C)NC(=O)c1sc2nc3c(cc2c1N)CN(C)CC3 [Compound 270, 3-Amino-6-methyl-5,6,7,8-tetrahydro-thieno[2,3-b][1,6]naphthyridine-2-carboxylic acid isopropylamide] | – | < 4.60 | – |
| Nc1c(C(=O)Nc2ccccc2)sc2nc3c(cc12)CCCCC3 [Compound 217, 3-Amino-6,7,8,9-tetrahydro-5H-1-thia-10-aza-cyclohepta[f]indene-2-carboxylic acid phenylamide] | – | < 4.60 | – |
| Nc1c(C(=O)N(CC(=O)O)c2cccc(C(F)(F)F)c2)sc2nc(-c3cccs3)ccc12 [Compound 326] | < 5 | – | – |
| Cc1cc(C)c2c(C)c(C(=O)N3CCc4ccccc4C3)sc2n1 [Compound 408, 3,4-dihydro-1H-isoquinolin-2-yl-(3,4,6-trimethylthieno[2,3-b]pyridin-2-yl) methanone] | > 25 | – | – |
| CC(=O)c1cnc2sc(C(=O)NCc3ccc(CN(C)C)cc3)c(C)c2c1 [Compound 400] | < 5 | – | – |
| CN1CCc2nc3sc(C(=O)NC4CC4)c(N)c3cc2C1 [Compound 105, 3-Amino-6-methyl-5,6,7,8-tetrahydro-thieno[2,3-b][1,6]naphthyridine-2-carboxylic acid cyclopropylamide] | – | – | pEC50 (Vero, 48 h): 4.60 to 5.30 |
| O=C(Nc1ccccc1Cl)c1sc2ncccc2c1O [Compound 382, N-(2-chlorophenyl)-3-hydroxy-thieno[2,3-b]pyridine-2-carboxamide] | 5 to 25 | – | – |
| Nc1c(C(=O)Nc2ccc3ccccc3c2)sc2nc3c(cc12)CCC3 [Compound 91, 3-Amino-6,7-dihydro-5H-cyclopenta[b]thieno[3,2-e]pyridine-2-carboxylic acid naphthalen-2-ylamide] | – | – | pEC50 (Vero, 48 h): 4.60 to 5.30 |
| COc1cccc(-c2ccc3c(N)c(C(=O)Nc4ccc(C)c(F)c4)sc3n2)c1 [Compound 523, 3-amino-N-(3-fluoro-4-methyl-phenyl)-6-(3-methoxyphenyl)thieno[2,3-b] pyridine-2-carboxamide] | < 5 | – | – |
| Nc1c(C(=O)Nc2ccccc2OC(F)(F)F)sc2nc3c(cc12)CCCCC3 [Compound 371, 3-amino-N-(2-(trifluoromethoxy)phenyl)-6,7,8,9-tetrahydro-5H-cyclohepta[b]thieno [3,2-e]pyridine-2-carboxamide] | < 5 | – | – |
